Experimental data: US20240246960A1 (adMare Therapeutics Society, priority 2021, published 2024)

Experiments:
[1] = molecular target: T1, DNA-PK (Homo sapiens, UniProt P78527); test: DNA-PK Assay for Biochemical Enzymatic Inhibition (ADP Glo Kinase assay); conditions: Table 1
T1 construct: purchased Invitrogen PR9107A
Summary of the method: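 Human DNA-PK (25 ng) preincubated 15 min with compounds (ten three-fold dilutions) in HEPES pH 7.5, MgCl2, KCl, calf thymus DNA buffer, then substrate 434.4 μM and ATP 64.4 μM (final) for 60 min at room temperature. ADP-Glo luminescence; percent inhibition fitted by four-parameter regression for IC50.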

[2] = Hepatocyte stability assay, human hepatocytes; assay type: in vitro ADME; conditions: for hepatocyte CLint at 1 uM: both sexes, human, cryopreserved hepatocytes, pH 7.3, 0.7 million cells per mL, 1 uM compound
Method: (§1) Cryopreserved mouse hepatocytes were obtained from a pool of 10 or more male CD-1 mice. Cryopreserved human hepatocytes were obtained from a pool of 10 or more donors of mixed gender. Final hepatocyte density was 0.7 million viable cells per mL and test compound concentration was 1 uM with a maximum of 0.01% DMSO. Cryopreserved hepatocytes were thawed, washed, and resuspended in Krebs-Heinslet buffer (pH 7.3). The reaction was initiated by adding the test compound into cell suspension and incubated for 0, […], 1, 1.5, and 2 h, respectively, at 37° C./5% CO2. The reaction was stopped by adding acetonitrile into the incubation mixture. Samples were then mixed, transferred completely to another 96-well plate, and centrifuged. Supernatants were used for HPLC-MS/MS analysis. […] Peak areas corresponding to the test compound were recorded.

[3] = Hepatocyte stability assay, mouse hepatocytes; assay type: in vitro ADME; conditions: for hepatocyte CLint at 1 uM: male, CD-1, mouse, cryopreserved hepatocytes, pH 7.3, 0.7 million cells per mL, 1 uM compound
Method: as §1

[4] = Microsomal stability assay, mouse liver microsomes; conditions: for microsomal CLint at 0.1 uM: male, CD-1, mouse, liver microsomes, pH 7.4, Microsomal Stability Mouse Clint, 0.1 mg/mL microsomes, 0.1 uM compound
Method: Mouse liver microsomes were obtained from a pool of 250 or more male CD-1 mice. […] Final microsomal concentration was 0.1 mg/mL and test compound concentration was 0.1 uM with a maximum of 0.01% DMSO. The test compound was pre-incubated with pooled liver microsomes in phosphate buffer (pH 7.4) for 5 min in a 37° C. shaking water bath. The reaction was initiated by adding NADPH-generating system and incubated for 0, 15, 30, 45, and 60 min. The reaction was stopped by transferring the incubation mixture to acetonitrile/methanol. Samples were then mixed and centrifuged. Supernatants were used for HPLC-MS/MS analysis. The HPLC system consisted of a binary LC pump with autosampler, a C-18 column, and a gradient. Peak areas corresponding to the test compound were recorded. The compound remaining was calculated by comparing the peak area at each time point to time zero. The half-life was calculated from the slope of the initial linear range of the logarithmic curve of compound remaining (%) vs. time, assuming first order kinetics. In addition, the intrinsic clearance (Clint) was calculated from the half-life.

FC(F)c1ccc2c(O[C@H]3CC[C@@H](Nc4ncccn4)CC3)nc(N3CCOCC3)cc2n1 [Compound 21, N-((1s,4s)-4-((2-(Difluoromethyl)-7-morpholino-1,6-naphthyridin-5-yl)oxy)cyclohexyl)pyrimidin-2-amine]
IC50 [1]: 0.5 to 1 nM
Hepatocyte Stability (human) % rem. 120 min [2]: G (% remaining = 50-75%)
hepatocyte CLint at 1 uM [2]: < 8.2 µL/min/1e6 cells
Hepatocyte Stability (mouse) % rem. 120 min [3]: G (% remaining = 50-75%)
hepatocyte CLint at 1 uM [3]: < 8.2 µL/min/1e6 cells

FC(F)c1ccnc2cc(N3CCOCC3)nc(O[C@H]3CC[C@@H](Nc4ncccn4)CC3)c12 [Compound 22, N-((1s,4s)-4-((4-(Difluoromethyl)-7-morpholino-1,6-naphthyridin-5-yl)oxy)cyclohexyl)pyrimidin-2-amine]
IC50 [1]: < 0.5 nM
Hepatocyte Stability (human) % rem. 120 min [2]: E (% remaining = 0-25%)
hepatocyte CLint at 1 uM [2]: > 8.2 µL/min/1e6 cells
Hepatocyte Stability (mouse) % rem. 120 min [3]: F (% remaining = 25-50%)
hepatocyte CLint at 1 uM [3]: > 8.2 µL/min/1e6 cells

c1cnc2cc(N3CCOCC3)nc(O[C@H]3CC[C@@H](Nc4cncnc4)CC3)c2c1 [Compound 28, N-((1s,4s)-4-((7-morpholino-1,6-naphthyridin-5-yl)oxy)cyclohexyl)pyrimidin-5-amine]
IC50 [1]: 0.5 to 1 nM
Hepatocyte Stability (mouse) % rem. 120 min [3]: E (% remaining = 0-25%)
hepatocyte CLint at 1 uM [3]: > 8.2 µL/min/1e6 cells
Microsomal Stability (mouse) % rem. 60 min [4]: E (% remaining = 0-25%)
microsomal CLint at 0.1 uM [4]: > 116 µL/min/mg

Cn1cnc(N[C@H]2CC[C@@H](Oc3nc(N4CCOCC4)cc4ncccc34)CC2)n1 [Compound 31, 1-methyl-N-((1s,4s)-4-((7-morpholino-1,6-naphthyridin-5-yl)oxy)cyclohexyl)-1H-1,2,4-triazol-3-amine]
IC50 [1]: < 0.5 nM
Hepatocyte Stability (human) % rem. 120 min [2]: F (% remaining = 25-50%)
hepatocyte CLint at 1 uM [2]: > 8.2 µL/min/1e6 cells
Hepatocyte Stability (mouse) % rem. 120 min [3]: H (% remaining = 75-100%)
hepatocyte CLint at 1 uM [3]: < 8.2 µL/min/1e6 cells

COc1ccc(N[C@H]2CC[C@@H](Oc3nc(N4CCOCC4)cc4ncccc34)CC2)nn1 [Compound 38, 6-methoxy-N-((1s,4s)-4-((7-morpholino-1,6-naphthyridin-5-yl)oxy)cyclohexyl)pyridazin-3-amine]
IC50 [1]: 0.5 to 1 nM
Hepatocyte Stability (human) % rem. 120 min [2]: E (% remaining = 0-25%)
hepatocyte CLint at 1 uM [2]: > 8.2 µL/min/1e6 cells
Hepatocyte Stability (mouse) % rem. 120 min [3]: F (% remaining = 25-50%)
hepatocyte CLint at 1 uM [3]: > 8.2 µL/min/1e6 cells

Nc1cnc(N[C@H]2CC[C@@H](Oc3nc(N4CCOCC4)cc4ncccc34)CC2)nc1 [Compound 43, N2-((1s,4s)-4-((7-morpholino-1,6-naphthyridin-5-yl)oxy)cyclohexyl)pyrimidine-2,5-diamine]
IC50 [1]: < 0.5 nM
Hepatocyte Stability (human) % rem. 120 min [2]: G (% remaining = 50-75%)
hepatocyte CLint at 1 uM [2]: < 8.2 µL/min/1e6 cells
Hepatocyte Stability (mouse) % rem. 120 min [3]: F (% remaining = 25-50%)
hepatocyte CLint at 1 uM [3]: > 8.2 µL/min/1e6 cells

CS(=O)(=O)Nc1cnc(N[C@H]2CC[C@@H](Oc3nc(N4CCOCC4)cc4ncccc34)CC2)nc1 [Compound 44, N-(2-(((1s,4s)-4-((7-morpholino-1,6-naphthyridin-5-yl)oxy)cyclohexyl)amino)pyrimidin-5-yl)methanesulfonamide]
IC50 [1]: < 0.5 nM
Hepatocyte Stability (human) % rem. 120 min [2]: H (% remaining = 75-100%)
hepatocyte CLint at 1 uM [2]: < 8.2 µL/min/1e6 cells
Hepatocyte Stability (mouse) % rem. 120 min [3]: G (% remaining = 50-75%)
hepatocyte CLint at 1 uM [3]: < 8.2 µL/min/1e6 cells

Oc1cnc(N[C@H]2CC[C@@H](Oc3nc(N4CCOCC4)cc4ncccc34)CC2)nc1 [Compound 45, 2-(((1s,4s)-4-((7-morpholino-1,6-naphthyridin-5-yl)oxy)cyclohexyl)amino)pyrimidin-5-ol]
IC50 [1]: 0.5 to 1 nM
Hepatocyte Stability (human) % rem. 120 min [2]: F (% remaining = 25-50%)
hepatocyte CLint at 1 uM [2]: < 8.2 µL/min/1e6 cells
Hepatocyte Stability (mouse) % rem. 120 min [3]: F (% remaining = 25-50%)
hepatocyte CLint at 1 uM [3]: > 8.2 µL/min/1e6 cells

NS(=O)(=O)c1cnc(N[C@H]2CC[C@@H](Oc3nc(N4CCOCC4)cc4ncccc34)CC2)nc1 [Compound 46, 2-(((1s,4s)-4-((7-morpholino-1,6-naphthyridin-5-yl)oxy)cyclohexyl)amino)pyrimidine-5-sulfonamide]
IC50 [1]: 0.5 to 1 nM
Hepatocyte Stability (human) % rem. 120 min [2]: G (% remaining = 50-75%)
hepatocyte CLint at 1 uM [2]: < 8.2 µL/min/1e6 cells
Hepatocyte Stability (mouse) % rem. 120 min [3]: G (% remaining = 50-75%)
hepatocyte CLint at 1 uM [3]: < 8.2 µL/min/1e6 cells

Cc1ccnc(N[C@H]2CC[C@@H](Oc3nc(N4CCOCC4)cc4ncccc34)CC2)n1 [Compound 48, 4-methyl-N-((1s,4s)-4-((7-morpholino-1,6-naphthyridin-5-yl)oxy)cyclohexyl)pyrimidin-2-amine]
IC50 [1]: < 0.5 nM
Hepatocyte Stability (human) % rem. 120 min [2]: F (% remaining = 25-50%)
hepatocyte CLint at 1 uM [2]: < 8.2 µL/min/1e6 cells
Hepatocyte Stability (mouse) % rem. 120 min [3]: F (% remaining = 25-50%)
hepatocyte CLint at 1 uM [3]: > 8.2 µL/min/1e6 cells

COc1ccnc(N[C@H]2CC[C@@H](Oc3nc(N4CCOCC4)cc4ncccc34)CC2)n1 [Compound 49, 4-methoxy-N-((1s,4s)-4-((7-morpholino-1,6-naphthyridin-5-yl)oxy)cyclohexyl)pyrimidin-2-amine]
IC50 [1]: 0.5 to 1 nM
Hepatocyte Stability (human) % rem. 120 min [2]: F (% remaining = 25-50%)
hepatocyte CLint at 1 uM [2]: > 8.2 µL/min/1e6 cells
Hepatocyte Stability (mouse) % rem. 120 min [3]: F (% remaining = 25-50%)
hepatocyte CLint at 1 uM [3]: > 8.2 µL/min/1e6 cells

NC(=O)c1cnc(N[C@H]2CC[C@@H](Oc3nc(N4CCOCC4)cc4ncccc34)CC2)nc1 [Compound 52, 2-(((1s,4s)-4-((7-morpholino-1,6-naphthyridin-5-yl)oxy)cyclohexyl)amino)pyrimidine-5-carboxamide]
IC50 [1]: < 0.5 nM
Hepatocyte Stability (human) % rem. 120 min [2]: G (% remaining = 50-75%)
hepatocyte CLint at 1 uM [2]: < 8.2 µL/min/1e6 cells
Hepatocyte Stability (mouse) % rem. 120 min [3]: H (% remaining = 75-100%)
hepatocyte CLint at 1 uM [3]: < 8.2 µL/min/1e6 cells

CN(C)C(=O)c1cnc(N[C@H]2CC[C@@H](Oc3nc(N4CCOCC4)cc4ncccc34)CC2)nc1 [Compound 53, N,N-dimethyl-2-(((1s,4s)-4-((7-morpholino-1,6-naphthyridin-5-yl)oxy)cyclohexyl)amino)pyrimidine-5-carboxamide]
IC50 [1]: 0.5 to 1 nM
Hepatocyte Stability (human) % rem. 120 min [2]: G (% remaining = 50-75%)
hepatocyte CLint at 1 uM [2]: < 8.2 µL/min/1e6 cells
Hepatocyte Stability (mouse) % rem. 120 min [3]: H (% remaining = 75-100%)
hepatocyte CLint at 1 uM [3]: < 8.2 µL/min/1e6 cells

c1cnc2cc(N3CCOCC3)nc(O[C@H]3CC[C@@H](Nc4ncnc5ccoc45)CC3)c2c1 [Compound 80a, N-((1s,4s)-4-((7-morpholino-1,6-naphthyridin-5-yl)oxy)cyclohexyl)furo[3,2-d]pyrimidin-4-amine]
IC50 [1]: < 0.5 nM
Hepatocyte Stability (human) % rem. 120 min [2]: G (% remaining = 50-75%)
hepatocyte CLint at 1 uM [2]: < 8.2 µL/min/1e6 cells
Hepatocyte Stability (mouse) % rem. 120 min [3]: F (% remaining = 25-50%)
hepatocyte CLint at 1 uM [3]: > 8.2 µL/min/1e6 cells

Cc1nc(N[C@H]2CC[C@@H](Oc3nc(N4CCOCC4)cc4ncccc34)CC2)c2occc2n1 [Compound 81, 2-methyl-N-((1s,4s)-4-((7-morpholino-1,6-naphthyridin-5-yl)oxy)cyclohexyl)furo[3,2-d]pyrimidin-4-amine]
IC50 [1]: < 0.5 nM
Hepatocyte Stability (human) % rem. 120 min [2]: G (% remaining = 50-75%)
hepatocyte CLint at 1 uM [2]: < 8.2 µL/min/1e6 cells
Hepatocyte Stability (mouse) % rem. 120 min [3]: F (% remaining = 25-50%)
hepatocyte CLint at 1 uM [3]: > 8.2 µL/min/1e6 cells

c1cnc2cc(N3CCOCC3)nc(O[C@H]3CC[C@@H](Nc4ncnc5occc45)CC3)c2c1 [Compound 82, N-((1s,4s)-4-((7-morpholino-1,6-naphthyridin-5-yl)oxy)cyclohexyl)furo[2,3-d]pyrimidin-4-amine]
IC50 [1]: < 0.5 nM
Hepatocyte Stability (human) % rem. 120 min [2]: F (% remaining = 25-50%)
hepatocyte CLint at 1 uM [2]: > 8.2 µL/min/1e6 cells
Hepatocyte Stability (mouse) % rem. 120 min [3]: E (% remaining = 0-25%)
hepatocyte CLint at 1 uM [3]: > 8.2 µL/min/1e6 cells

O=C(N[C@H]1CC[C@@H](Oc2nc(N3CCOCC3)cc3ncccc23)CC1)c1cccnc1 [Compound 115, N-((1s,4s)-4-((7-morpholino-1,6-naphthyridin-5-yl)oxy)cyclohexyl)nicotinamide]
IC50 [1]: < 0.5 nM
Hepatocyte Stability (mouse) % rem. 120 min [3]: F (% remaining = 25-50%)
hepatocyte CLint at 1 uM [3]: > 8.2 µL/min/1e6 cells
Microsomal Stability (mouse) % rem. 60 min [4]: F (% remaining = 25-50%)
microsomal CLint at 0.1 uM [4]: > 116 µL/min/mg

O=C(N[C@H]1CC[C@@H](Oc2nc(N3CCOCC3)cc3ncccc23)CC1)c1ccncn1 [Compound 118, N-((1s,4s)-4-((7-morpholino-1,6-naphthyridin-5-yl)oxy)cyclohexyl)pyrimidine-4-carboxamide]
IC50 [1]: 0.5 to 1 nM
Hepatocyte Stability (mouse) % rem. 120 min [3]: E (% remaining = 0-25%)
hepatocyte CLint at 1 uM [3]: > 8.2 µL/min/1e6 cells
Microsomal Stability (mouse) % rem. 60 min [4]: F (% remaining = 25-50%)
microsomal CLint at 0.1 uM [4]: > 116 µL/min/mg

O=C(N[C@H]1CC[C@@H](Oc2nc(N3CCOCC3)cc3ncccc23)CC1)c1nccs1 [Compound 135, N-((1s,4s)-4-((7-morpholino-1,6-naphthyridin-5-yl)oxy)cyclohexyl)thiazole-2-carboxamide]
IC50 [1]: < 0.5 nM
Hepatocyte Stability (mouse) % rem. 120 min [3]: F (% remaining = 25-50%)
hepatocyte CLint at 1 uM [3]: > 8.2 µL/min/1e6 cells
Microsomal Stability (mouse) % rem. 60 min [4]: E (% remaining = 0-25%)
microsomal CLint at 0.1 uM [4]: > 116 µL/min/mg
